Experimental data from US9611267B2, “Substituted tricyclic compounds as FGFR inhibitors” (Incyte Corporation, priority 2012, dated 2017).

Experiments:
Assay type in all cases: biochemical
[1] = molecular target: FGFR1 (Homo sapiens (Human), UniProt P11362); experiment: FGFR enzymatic assay (FRET peptide phosphorylation), FGFR1; conditions: FGFR1 enzyme 0.02 nM, ATP 210 μM
How it was run: (§1)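 Recombinant kinase was pre-incubated 5–10 min with serially diluted inhibitor in HEPES buffer (10 mM MgCl2, 5 mM DTT, pH 7.5; buffer described for FGFR3). Peptide phosphorylation ran 1 h at 25 °C and was detected by FRET after ~1 h equilibration. IC50 values come from variable-slope sigmoidal fits.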

[2] = molecular target: FGFR2 (Homo sapiens (Human), UniProt P21802); experiment: FGFR enzymatic assay (FRET peptide phosphorylation), FGFR2; conditions: FGFR2 enzyme 0.01 nM, ATP 100 μM
How it was run: as §1

[3] = molecular target: FGFR3 (Homo sapiens (Human), UniProt P22607); experiment: FGFR enzymatic assay (FRET peptide phosphorylation), FGFR3; conditions: FGFR3 enzyme (Millipore), ATP 140 μM
How it was run: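 FRET assay of peptide phosphorylation by FGFR3 in HEPES pH 7.5 buffer with MgCl2, EGTA, Tween-20 and DTT. Enzyme was pre-incubated 5-10 min with compound, and the reaction ran 1 hr at 25° C. IC50 came from a variable-slope sigmoidal fit.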

Chain of FGFR2 (P21802 22-821): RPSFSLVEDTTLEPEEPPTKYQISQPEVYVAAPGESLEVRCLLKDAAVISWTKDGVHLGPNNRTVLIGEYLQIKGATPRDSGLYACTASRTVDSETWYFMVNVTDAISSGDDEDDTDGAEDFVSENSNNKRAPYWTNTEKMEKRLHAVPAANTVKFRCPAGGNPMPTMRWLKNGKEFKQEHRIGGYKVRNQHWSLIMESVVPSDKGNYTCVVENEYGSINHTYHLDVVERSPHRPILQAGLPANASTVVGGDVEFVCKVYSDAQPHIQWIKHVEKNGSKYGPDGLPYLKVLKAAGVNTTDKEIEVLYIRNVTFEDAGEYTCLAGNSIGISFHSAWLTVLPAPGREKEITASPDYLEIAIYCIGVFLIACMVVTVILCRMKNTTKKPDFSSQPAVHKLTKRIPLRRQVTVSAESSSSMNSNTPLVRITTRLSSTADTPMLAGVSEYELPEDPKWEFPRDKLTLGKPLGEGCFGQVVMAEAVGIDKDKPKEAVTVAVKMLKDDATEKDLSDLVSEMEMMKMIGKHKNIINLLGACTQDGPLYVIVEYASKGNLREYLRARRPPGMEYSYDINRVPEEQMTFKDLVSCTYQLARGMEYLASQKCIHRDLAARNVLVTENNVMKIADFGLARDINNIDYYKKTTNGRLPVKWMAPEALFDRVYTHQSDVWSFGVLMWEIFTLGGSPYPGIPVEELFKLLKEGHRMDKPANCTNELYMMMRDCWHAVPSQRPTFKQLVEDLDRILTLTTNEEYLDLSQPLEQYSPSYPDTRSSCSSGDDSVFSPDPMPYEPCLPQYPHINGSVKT
Chain of FGFR1 (P11362 22-822): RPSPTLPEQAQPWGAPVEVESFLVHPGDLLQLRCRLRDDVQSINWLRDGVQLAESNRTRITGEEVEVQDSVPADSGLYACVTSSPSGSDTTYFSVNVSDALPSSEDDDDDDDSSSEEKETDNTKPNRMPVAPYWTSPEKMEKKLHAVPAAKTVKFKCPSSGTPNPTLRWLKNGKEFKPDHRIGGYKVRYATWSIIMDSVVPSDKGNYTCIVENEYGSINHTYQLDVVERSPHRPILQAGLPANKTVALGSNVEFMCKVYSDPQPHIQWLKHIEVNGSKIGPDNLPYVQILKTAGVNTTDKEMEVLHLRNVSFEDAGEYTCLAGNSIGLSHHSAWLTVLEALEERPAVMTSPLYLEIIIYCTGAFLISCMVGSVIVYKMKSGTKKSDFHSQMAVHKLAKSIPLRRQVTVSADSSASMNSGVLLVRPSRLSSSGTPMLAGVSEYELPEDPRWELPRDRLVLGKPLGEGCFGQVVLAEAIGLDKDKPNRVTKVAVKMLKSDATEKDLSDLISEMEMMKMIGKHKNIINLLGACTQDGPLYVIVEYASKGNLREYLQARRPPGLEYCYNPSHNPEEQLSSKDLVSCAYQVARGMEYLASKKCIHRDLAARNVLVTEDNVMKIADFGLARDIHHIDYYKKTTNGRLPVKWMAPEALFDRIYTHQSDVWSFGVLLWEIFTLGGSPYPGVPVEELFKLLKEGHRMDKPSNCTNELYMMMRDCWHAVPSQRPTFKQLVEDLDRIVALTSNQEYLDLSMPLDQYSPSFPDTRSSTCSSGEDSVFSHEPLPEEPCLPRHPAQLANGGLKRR
Chain of FGFR3 (P22607 23-806): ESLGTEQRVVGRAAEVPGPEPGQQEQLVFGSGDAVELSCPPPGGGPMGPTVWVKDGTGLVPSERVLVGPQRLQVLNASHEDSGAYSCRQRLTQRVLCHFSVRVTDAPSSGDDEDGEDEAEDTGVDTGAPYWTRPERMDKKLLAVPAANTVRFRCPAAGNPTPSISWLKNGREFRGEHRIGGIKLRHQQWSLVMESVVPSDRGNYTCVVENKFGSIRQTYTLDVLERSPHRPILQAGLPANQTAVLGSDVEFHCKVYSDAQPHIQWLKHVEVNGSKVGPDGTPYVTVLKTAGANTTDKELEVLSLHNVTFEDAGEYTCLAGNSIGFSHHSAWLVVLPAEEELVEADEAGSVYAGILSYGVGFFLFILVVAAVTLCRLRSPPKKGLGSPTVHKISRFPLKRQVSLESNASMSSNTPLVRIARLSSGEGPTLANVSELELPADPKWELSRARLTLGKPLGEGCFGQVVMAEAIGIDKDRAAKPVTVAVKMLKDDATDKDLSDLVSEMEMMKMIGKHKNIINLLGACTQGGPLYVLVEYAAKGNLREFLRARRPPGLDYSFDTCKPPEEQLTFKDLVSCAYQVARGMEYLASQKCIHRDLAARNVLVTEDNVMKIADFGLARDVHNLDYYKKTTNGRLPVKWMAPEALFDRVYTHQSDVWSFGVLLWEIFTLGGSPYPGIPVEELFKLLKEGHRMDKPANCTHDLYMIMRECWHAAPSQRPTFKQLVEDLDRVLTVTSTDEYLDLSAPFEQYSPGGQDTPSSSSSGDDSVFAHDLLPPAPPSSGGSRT

IC50 [1]	IC50 [2]	IC50 [3]	SMILES
< 100 nM	< 100 nM	< 100 nM	COc1cc(OC)c(F)c(N2Cc3cnc4[nH]c(Cc5cnn(C)c5)cc4c3N(C)C2=O)c1F [Example 139, 3-(2,6-difluoro-3,5-dimethoxyphenyl)-1-methyl-8-[(1-methyl-1H-pyrazol-4-yl)methyl]-1,3,4,7-tetrahydro-2H-pyrrolo[3′,2′:5,6]pyrido[4,3-d]pyrimidin-2-one]
< 100 nM	< 100 nM	< 100 nM	COc1cc(OC)c(F)c(N2Cc3cnc4[nH]ncc4c3N(C[C@@H]3CCCO3)C2=O)c1F [Example 167, 3-(2,6-Difluoro-3,5-dimethoxyphenyl)-1-[(2S)-tetrahydrofuran-2-ylmethyl]-1,3,4,7-tetrahydro-2H-pyrazolo[4′,3′:5,6]pyrido[4,3-d]pyrimidin-2-one]
< 100 nM	< 100 nM	< 100 nM	COc1cc(OC)c(F)c(N2Cc3cnc4[nH]ccc4c3C3(CCCC3)C2=O)c1F [Example 149, 7′-(2,6-difluoro-3,5-dimethoxyphenyl)-6′,7′-dihydrospiro[cyclopentane-1,9′-pyrrolo[2,3-c][2,7]naphthyridin]-8′(3′H)-one]
< 100 nM	< 100 nM	< 100 nM	COc1cc(OC)c(F)c(N2Cc3cnc4[nH]ncc4c3N(C3CC3)C2=O)c1F [Example 87, 1-cyclopropyl-3-(2,6-difluoro-3,5-dimethoxyphenyl)-1,3,4,7-tetrahydro-2H-pyrazolo[4′,3′:5,6]pyrido[4,3-d]pyrimidin-2-one]
< 100 nM	< 100 nM	< 100 nM	COc1cc(OC)c(Cl)c(N2Cc3cnc4[nH]ncc4c3N(C3CC3)C2=O)c1F [Example 101, 3-(2-chloro-6-fluoro-3,5-dimethoxyphenyl)-1-cyclopropyl-1,3,4,7-tetrahydro-2H-pyrazolo[4′,3′:5,6]pyrido[4,3-d]pyrimidin-2-one]
< 100 nM	< 100 nM	< 100 nM	COc1cc(OC)c(F)c(N2Cc3cnc4[nH]ncc4c3N(c3cccc(C(=O)NC4CC4)c3F)C2=O)c1F [Example 200, N-cyclopropyl-3-[3-(2,6-difluoro-3,5-dimethoxyphenyl)-2-oxo-2,3,4,7-tetrahydro-1H-pyrazolo[4′,3′:5,6]pyrido[4,3-d]pyrimidin-1-yl]-2-fluorobenzamide]
< 100 nM	< 100 nM	< 100 nM	COc1cc(OC)c(F)c(N2Cc3cnc4[nH]c(CN5CCN(C)CC5)cc4c3N(CCF)C2=O)c1F [Example 233, 3-(2,6-difluoro-3,5-dimethoxyphenyl)-1-(2-fluoroethyl)-8-[(4-methylpiperazin-1-yl)methyl]-1,3,4,7-tetrahydro-2H-pyrrolo[3′,2′:5,6]pyrido[4,3-d]pyrimidin-2-one]
< 100 nM	< 100 nM	< 100 nM	CCN1CCN(Cc2cc3c4c(cnc3[nH]2)CN(c2c(F)c(OC)cc(OC)c2F)C(=O)N4c2cnn(C)c2)CC1 [Example 205, 3-(2,6-difluoro-3,5-dimethoxyphenyl)-8-[(4-ethylpiperazin-1-yl)methyl]-1-(1-methyl-1H-pyrazol-4-yl)-1,3,4,7-tetrahydro-2H-pyrrolo[3′,2′:5,6]pyrido[4,3-d]pyrimidin-2-one]
< 100 nM	< 100 nM	< 100 nM	COc1cc(OC)c(F)c(N2Cc3cnc4[nH]c(C(=O)NC5CC5)cc4c3N(C)C2=O)c1 [Example 27, N-Cyclopropyl-3-(2-fluoro-3,5-dimethoxyphenyl)-1-methyl-2-oxo-2,3,4,7-tetrahydro-1H-pyrrolo[3′,2′:5,6]pyrido[4,3-d]pyrimidine-8-carboxamide]
< 100 nM	< 100 nM	< 100 nM	CCN1CCN(Cc2cc3c4c(cnc3[nH]2)CN(c2c(F)c(OC)cc(OC)c2F)C(=O)C4(C)C)CC1 [Example 154, 7-(2,6-difluoro-3,5-dimethoxyphenyl)-2-[(4-ethylpiperazin-1-yl)methyl]-9,9-dimethyl-3,6,7,9-tetrahydro-8H-pyrrolo[2,3-c]-2,7-naphthyridin-8-one]
< 100 nM	< 100 nM	< 100 nM	COc1cc(OC)c(F)c(N2Cc3cnc4c(c3N([C@@H]3CCC[C@H]3O)C2=O)CC(=O)N4)c1F [Example 75, 3-(2,6-difluoro-3,5-dimethoxyphenyl)-1-[(1R,2R)-2-hydroxycyclopentyl]-3,4,7,9-tetrahydro-1H-pyrrolo[3′,2′:5,6]pyrido[4,3-d]pyrimidine-2,8-dione]
< 100 nM	< 100 nM	< 100 nM	COc1cc(OC)c(F)c(N2Cc3cnc4[nH]c(C(=O)N5CC(O)C5)cc4c3N(C)C2=O)c1 [Example 28, 3-(2-Fluoro-3,5-dimethoxyphenyl)-8-[(3-hydroxyazetidin-1-yl)carbonyl]-1-methyl-1,3,4,7-tetrahydro-2H-pyrrolo[3′,2′:5,6]pyrido[4,3-d]pyrimidin-2-one]
< 100 nM	< 100 nM	< 100 nM	COc1cc(OC)c(F)c(N2Cc3cnc4[nH]ncc4c3N([C@@H]3CCOC3)C2=O)c1F [Example 90, 3-(2,6-difluoro-3,5-dimethoxyphenyl)-1-[(3R)-tetrahydrofuran-3-yl]-1,3,4,7-tetrahydro-2H-pyrazolo[4′,3′:5,6]pyrido[4,3-d]pyrimidin-2-one]
< 100 nM	< 100 nM	< 100 nM	COc1cc(OC)c(F)c(N2Cc3cnc4[nH]c(CN5CCOCC5)cc4c3C(C)(C)C2=O)c1F [Example 152, 7-(2,6-difluoro-3,5-dimethoxyphenyl)-9,9-dimethyl-2-(morpholin-4-ylmethyl)-3,6,7,9-tetrahydro-8H-pyrrolo[2,3-c]-2,7-naphthyridin-8-one]
< 100 nM	< 100 nM	< 100 nM	COc1cc(OC)c(F)c(N2Cc3cnc4[nH]c(CCN5CCOCC5)cc4c3N(c3cccc(F)c3F)C2=O)c1F [Example 222, 3-(2,6-difluoro-3,5-dimethoxyphenyl)-1-(2,3-difluorophenyl)-8-(2-morpholin-4-ylethyl)-1,3,4,7-tetrahydro-2H-pyrrolo[3′,2′:5,6]pyrido[4,3-d]pyrimidin-2-one]
< 100 nM	< 100 nM	< 100 nM	COc1cc(OC)c(F)c(N2Cc3cnc4[nH]c(Cn5cccn5)cc4c3N(C)C2=O)c1F [Example 138, 3-(2,6-difluoro-3,5-dimethoxyphenyl)-1-methyl-8-(1H-pyrazol-1-ylmethyl)-1,3,4,7-tetrahydro-2H-pyrrolo[3′,2′:5,6]pyrido[4,3-d]pyrimidin-2-one]
< 100 nM	< 100 nM	< 100 nM	COc1cc(OC)c(F)c(N2Cc3cnc4[nH]c(CCN5CCCC5)cc4c3N(C)C2=O)c1F [Example 116, 3-(2,6-difluoro-3,5-dimethoxyphenyl)-1-methyl-8-(2-pyrrolidin-1-ylethyl)-1,3,4,7-tetrahydro-2H-pyrrolo[3′,2′:5,6]pyrido[4,3-d]pyrimidin-2-one]
< 100 nM	< 100 nM	< 100 nM	CCN1CCN(Cc2cc3c4c(cnc3[nH]2)CN(c2c(F)c(OC)cc(OC)c2F)C(=O)N4c2cccc(F)c2F)CC1 [Example 193, 3-(2,6-difluoro-3,5-dimethoxyphenyl)-1-(2,3-difluorophenyl)-8-[(4-ethylpiperazin-1-yl)methyl]-1,3,4,7-tetrahydro-2H-pyrrolo[3′,2′:5,6]pyrido[4,3-d]pyrimidin-2-one]
< 100 nM	< 100 nM	< 100 nM	COc1cc(OC)c(F)c(N2Cc3cnc4[nH]ncc4c3N(c3cnn(CC(F)F)c3)C2=O)c1F [Example 175, 3-(2,6-difluoro-3,5-dimethoxyphenyl)-1-[1-(2,2-difluoroethyl)-1H-pyrazol-4-yl]-1,3,4,7-tetrahydro-2H-pyrazolo[4′,3′:5,6]pyrido[4,3-d]pyrimidin-2-one]
< 100 nM	< 100 nM	< 100 nM	COc1cc(OC)c(F)c(N2Cc3cnc4[nH]c(CN5CCC(C#N)CC5)cc4c3C(C)(C)C2=O)c1F [Example 155, 1-{[7-(2,6-difluoro-3,5-dimethoxyphenyl)-9,9-dimethyl-8-oxo-6,7,8,9-tetrahydro-3H-pyrrolo[2,3-c]-2,7-naphthyridin-2-yl]methyl}piperidine-4-carbonitrile]
< 100 nM	< 100 nM	< 100 nM	COc1cc(OC)c(F)c(N2Cc3cnc4[nH]cc(C)c4c3N(C)C2=O)c1F [Example 104, 3-(2,6-difluoro-3,5-dimethoxyphenyl)-1,9-dimethyl-1,3,4,7-tetrahydro-2H-pyrrolo[3′,2′:5,6]pyrido[4,3-d]pyrimidin-2-one]
< 100 nM	< 100 nM	< 100 nM	CCN1CCN(c2ccc(-c3n[nH]c4ncc5c(c34)N(C)C(=O)N(c3c(F)c(OC)cc(OC)c3F)C5)cc2)CC1 [Example 69, 3-(2,6-difluoro-3,5-dimethoxyphenyl)-9-[4-(4-ethylpiperazin-1-yl)phenyl]-1-methyl-1,3,4,7-tetrahydro-2H-pyrazolo[4′,3′:5,6]pyrido[4,3-d]pyrimidin-2-one]
< 100 nM	< 100 nM	< 100 nM	CCN1C(=O)N(c2c(F)c(OC)cc(OC)c2F)Cc2cnc3[nH]c(CCN4CC(F)C4)cc3c21 [Example 231, 3-(2,6-difluoro-3,5-dimethoxyphenyl)-1-ethyl-8-[2-(3-fluoroazetidin-1-yl)ethyl]-1,3,4,7-tetrahydro-2H-pyrrolo[3′,2′:5,6]pyrido[4,3-d]pyrimidin-2-one]
